Measurements: patent EP0908457B1, “3-(1,2-benzisothiazol- and isoxazol-5-Y1)-2,4(1H,3H)-pyrimidinedione or thione and 3-(1,2-benzisothiazol- and isoxazol-5-y1)-4(3H)-pyrimidinone or thione herbicidal agents” (BASF AKTIENGESELLSCHAFT, priority 1997, dated 1999)

What was measured:
[1] = tested on: Cyperus iria; experiment: Postemergence weed control under flooded paddy conditions, CYPIR (Rice Flatsedge); format: in vivo; details: rated three to four weeks after treatment
[2] = tested on: Oryza sativa, (L.) Tebonnet; experiment: Rice tolerance to post-transplant applications under flooded paddy conditions (Example 188), ORYSAT (Rice, Tebonnet); details: rated three to four weeks after treatment
[3] = tested on: Cyperus serotinus, Rottb.; experiment: Preemergence weed control under flooded paddy conditions, CYPSE (Flatsedge); format: in vivo; details: preemergence, rated three to four weeks after treatment; note: meaning of each grade not given here
[4] = tested on: Cyperus serotinus, Rottb.; experiment: Postemergence weed control under flooded paddy conditions, CYPSE (Flatsedge); format: in vivo; details: rated three to four weeks after treatment
[5] = tested on: Monochoria vaginalis, Presl.; experiment: Preemergence weed control under flooded paddy conditions, MOOVA (Monochoria); format: in vivo; note: meaning of each grade not given here
[6] = tested on: Oryza sativa, (L.) Tebonnet; experiment: Rice tolerance to post-transplant applications under flooded paddy conditions (Example 187), ORYSAT (Rice, Tebonnet); details: rated three to four weeks after treatment
[7] = tested on: Sagittaria pygmaea, L.; experiment: Preemergence weed control under flooded paddy conditions, SAGPY (Arrowhead (Pygmaea)); format: in vivo; details: preemergence, flooded paddy, rated three to four weeks after treatment; note: meaning of each grade not given here
[8] = tested on: Cyperus iria; experiment: Preemergence weed control under flooded paddy conditions, CYPIR (Rice Flatsedge); format: in vivo; note: meaning of each grade not given here
[9] = tested on: Echinochloa oryzoides (Ard.) Fritsch.; experiment: Postemergence weed control under flooded paddy conditions, ECHORC (Watergrass (Calif.)); format: in vivo; details: rated three to four weeks after treatment
[10] = tested on: Echinochloa oryzoides (Ard.) Fritsch.; experiment: Preemergence weed control under flooded paddy conditions, ECHORC (Watergrass (Calif.)); format: in vivo; note: meaning of each grade not given here
[11] = tested on: Sagittaria pygmaea, L.; experiment: Postemergence weed control under flooded paddy conditions, SAGPY (Arrowhead (Pygmaea)); format: in vivo; details: rated three to four weeks after treatment
[12] = tested on: Monochoria vaginalis, Presl.; experiment: Postemergence weed control under flooded paddy conditions, MOOVA (Monochoria); format: in vivo; details: rated three to four weeks after treatment
[13] = 0.0313 kg/ha, preemergence, flooded paddy, rated three to four weeks after treatment
[14] = 0.0625 kg/ha, preemergence, flooded paddy, rated three to four weeks after treatment
[15] = 0.1250 kg/ha, preemergence, flooded paddy, rated three to four weeks after treatment
[16] = 0.2500 kg/ha, preemergence, flooded paddy, rated three to four weeks after treatment
[17] = 0.5000 kg/ha, preemergence, flooded paddy, rated three to four weeks after treatment
[18] = Rate 0.0320 kg/ha, preemergence, flooded paddy, rated three to four weeks after treatment
[19] = Rate 0.0620 kg/ha, preemergence, flooded paddy, rated three to four weeks after treatment
[20] = Rate 0.1250 kg/ha, preemergence, flooded paddy, rated three to four weeks after treatment
[21] = Rate 0.2500 kg/ha, preemergence, flooded paddy, rated three to four weeks after treatment

COc1ccc(C)cc1-c1nsc2ccc(-n3c(=O)cc(C(F)(F)F)n(C)c3=O)cc12 [Example 1, 3-[3-(6-Methoxy-m-tolyl)-1,2-benzisothiazol-5-yl]-1-methyl-6-(trifluoromethyl)-2,4(1H,3H)-pyrimidinedione]
herbicidal effect rating, CYPIR ([1]; Rate 0.0313 kg/ha): 0.0 | herbicidal effect rating, CYPIR ([1]; Rate 0.0625 kg/ha): 4.0 | herbicidal effect rating, CYPIR ([1]; Rate 0.1250 kg/ha): 9.0 | herbicidal effect rating, CYPIR ([1]; Rate 0.2500 kg/ha): 9.0 | herbicidal effect rating, CYPIR ([1]; Rate 0.5000 kg/ha): 9.0 | herbicidal effect rating, ORYSAT (rice tolerance) ([2]; Rate 0.0313 kg/ha): 3.0 | herbicidal effect rating, ORYSAT (rice tolerance) ([2]; Rate 0.0625 kg/ha): 3.0 | herbicidal effect rating, ORYSAT (rice tolerance) ([2]; Rate 0.1250 kg/ha): 4.0 | herbicidal effect rating, ORYSAT (rice tolerance) ([2]; Rate 0.2500 kg/ha): 6.0 | herbicidal effect rating, ORYSAT (rice tolerance) ([2]; Rate 0.5000 kg/ha): 7.0 | herbicidal effect rating, CYPSE ([3]; 0.0313 kg/ha): 1.3 | herbicidal effect rating, CYPSE ([3]; 0.0625 kg/ha): 3.0 | herbicidal effect rating, CYPSE ([3]; 0.1250 kg/ha): 6.0 | herbicidal effect rating, CYPSE ([3]; 0.2500 kg/ha): 9.0 | herbicidal effect rating, CYPSE ([3]; 0.5000 kg/ha): 8.0 | herbicidal effect rating, CYPSE ([4]; Rate 0.0313 kg/ha): 1.0 | herbicidal effect rating, CYPSE ([4]; Rate 0.0625 kg/ha): 1.0 | herbicidal effect rating, CYPSE ([4]; Rate 0.1250 kg/ha): 3.0 | herbicidal effect rating, CYPSE ([4]; Rate 0.2500 kg/ha): 5.5 | herbicidal effect rating, CYPSE ([4]; Rate 0.5000 kg/ha): 6.5 | herbicidal effect rating, MOOVA [5, 13]: 9.0 | herbicidal effect rating, MOOVA [5, 14]: 9.0 | herbicidal effect rating, MOOVA [5, 15]: 9.0 | herbicidal effect rating, MOOVA [5, 16]: 9.0 | herbicidal effect rating, MOOVA [5, 17]: 9.0 | herbicidal effect rating, ORYSAT (rice tolerance) ([6]; 0.0313 kg/ha): 4.7 | herbicidal effect rating, ORYSAT (rice tolerance) ([6]; 0.0625 kg/ha): 4.7 | herbicidal effect rating, ORYSAT (rice tolerance) ([6]; 0.1250 kg/ha): 5.3 | herbicidal effect rating, ORYSAT (rice tolerance) ([6]; 0.2500 kg/ha): 7.7 | herbicidal effect rating, ORYSAT (rice tolerance) ([6]; 0.5000 kg/ha): 7.0 | herbicidal effect rating, SAGPY ([7]; 0.0313 kg/ha): 3.3 | herbicidal effect rating, SAGPY ([7]; 0.0625 kg/ha): 5.0 | herbicidal effect rating, SAGPY ([7]; 0.1250 kg/ha): 6.7 | herbicidal effect rating, SAGPY ([7]; 0.2500 kg/ha): 8.3 | herbicidal effect rating, SAGPY ([7]; 0.5000 kg/ha): 8.5 | herbicidal effect rating, CYPIR [8, 13]: 9.0 | herbicidal effect rating, CYPIR [8, 14]: 9.0 | herbicidal effect rating, CYPIR [8, 15]: 9.0 | herbicidal effect rating, CYPIR [8, 16]: 9.0 | herbicidal effect rating, CYPIR [8, 17]: 9.0 | herbicidal effect rating, ECHORC ([9]; Rate 0.0313 kg/ha): 1.0 | herbicidal effect rating, ECHORC ([9]; Rate 0.0625 kg/ha): 2.5 | herbicidal effect rating, ECHORC ([9]; Rate 0.1250 kg/ha): 6.5 | herbicidal effect rating, ECHORC ([9]; Rate 0.2500 kg/ha): 8.0 | herbicidal effect rating, ECHORC ([9]; Rate 0.5000 kg/ha): 9.0 | herbicidal effect rating, ECHORC [10, 13]: 9.0 | herbicidal effect rating, ECHORC [10, 14]: 9.0 | herbicidal effect rating, ECHORC [10, 15]: 9.0 | herbicidal effect rating, ECHORC [10, 16]: 9.0 | herbicidal effect rating, ECHORC [10, 17]: 9.0 | herbicidal effect rating, SAGPY ([11]; Rate 0.0313 kg/ha): 0.0 | herbicidal effect rating, SAGPY ([11]; Rate 0.0625 kg/ha): 0.0 | herbicidal effect rating, SAGPY ([11]; Rate 0.1250 kg/ha): 0.0 | herbicidal effect rating, SAGPY ([11]; Rate 0.2500 kg/ha): 1.0 | herbicidal effect rating, SAGPY ([11]; Rate 0.5000 kg/ha): 3.0 | herbicidal effect rating, MOOVA ([12]; Rate 0.0313 kg/ha): 0.0 | herbicidal effect rating, MOOVA ([12]; Rate 0.0625 kg/ha): 1.0 | herbicidal effect rating, MOOVA ([12]; Rate 0.1250 kg/ha): 4.5 | herbicidal effect rating, MOOVA ([12]; Rate 0.2500 kg/ha): 5.5 | herbicidal effect rating, MOOVA ([12]; Rate 0.5000 kg/ha): 6.5

COC(=O)C(C)Oc1ccc(C)cc1-c1nsc2ccc(-n3c(=O)cc(C(F)(F)F)n(C)c3=O)cc12 (stereo not drawn) [Example 3, Methyl 2-{{2-{5-[3,6-dihydro-3-methyl-4-(trifluoromethyl)-2,6-dioxo-1(2H)-pyrimidinyl]-1,2-benzisothiazol-3-yl}-p-tolyl}oxy}propionate]
herbicidal effect rating, CYPIR ([1]; Rate 0.0313 kg/ha): 9.0 | herbicidal effect rating, CYPIR ([1]; Rate 0.0625 kg/ha): 9.0 | herbicidal effect rating, CYPIR ([1]; Rate 0.1250 kg/ha): 9.0 | herbicidal effect rating, CYPIR ([1]; Rate 0.2500 kg/ha): 9.0 | herbicidal effect rating, CYPIR ([1]; Rate 0.5000 kg/ha): 9.0 | herbicidal effect rating, ORYSAT (rice tolerance) ([2]; Rate 0.0313 kg/ha): 2.0 | herbicidal effect rating, ORYSAT (rice tolerance) ([2]; Rate 0.0625 kg/ha): 2.0 | herbicidal effect rating, ORYSAT (rice tolerance) ([2]; Rate 0.1250 kg/ha): 3.0 | herbicidal effect rating, ORYSAT (rice tolerance) ([2]; Rate 0.2500 kg/ha): 3.0 | herbicidal effect rating, ORYSAT (rice tolerance) ([2]; Rate 0.5000 kg/ha): 3.0 | herbicidal effect rating, CYPSE ([4]; Rate 0.0313 kg/ha): 0.0 | herbicidal effect rating, CYPSE ([4]; Rate 0.0625 kg/ha): 0.0 | herbicidal effect rating, CYPSE ([4]; Rate 0.1250 kg/ha): 0.0 | herbicidal effect rating, CYPSE ([4]; Rate 0.2500 kg/ha): 0.0 | herbicidal effect rating, CYPSE ([4]; Rate 0.5000 kg/ha): 0.0 | herbicidal effect rating, MOOVA ([5]; in vivo): 9.0 | herbicidal effect rating, CYPIR ([8]; in vivo): 9.0 | herbicidal effect rating, ECHORC ([9]; Rate 0.0313 kg/ha): 0.0 | herbicidal effect rating, ECHORC ([9]; Rate 0.0625 kg/ha): 0.0 | herbicidal effect rating, ECHORC ([9]; Rate 0.1250 kg/ha): 0.0 | herbicidal effect rating, ECHORC ([9]; Rate 0.2500 kg/ha): 2.0 | herbicidal effect rating, ECHORC ([9]; Rate 0.5000 kg/ha): 4.0 | herbicidal effect rating, ECHORC ([10]; in vivo): 9.0 | herbicidal effect rating, SAGPY ([11]; Rate 0.0313 kg/ha): 0.0 | herbicidal effect rating, SAGPY ([11]; Rate 0.0625 kg/ha): 0.0 | herbicidal effect rating, SAGPY ([11]; Rate 0.1250 kg/ha): 0.0 | herbicidal effect rating, SAGPY ([11]; Rate 0.2500 kg/ha): 0.0 | herbicidal effect rating, SAGPY ([11]; Rate 0.5000 kg/ha): 0.0 | herbicidal effect rating, MOOVA ([12]; Rate 0.0313 kg/ha): 9.0 | herbicidal effect rating, MOOVA ([12]; Rate 0.0625 kg/ha): 9.0 | herbicidal effect rating, MOOVA ([12]; Rate 0.1250 kg/ha): 9.0 | herbicidal effect rating, MOOVA ([12]; Rate 0.2500 kg/ha): 9.0 | herbicidal effect rating, MOOVA ([12]; Rate 0.5000 kg/ha): 9.0

Cn1c(C(F)(F)F)cc(=O)n(-c2ccc3snc(C(C#N)=Cc4cc5ccccc5[nH]4)c3c2)c1=O [Example 601, 1,2-Benzisothiazole-3-acetonitrile, 5-[3,6-dihydro-3-methyl-2,6-dioxo-4-(trifluoromethyl)-1(2H)-pyrimidinyl]-alpha-(indol-2-ylmethylene)-]
herbicidal effect rating, CYPSE ([3]; Rate 0.0320 kg/ha): 0.0 | herbicidal effect rating, CYPSE ([3]; Rate 0.0620 kg/ha): 0.0 | herbicidal effect rating, CYPSE ([3]; Rate 0.1250 kg/ha): 0.0 | herbicidal effect rating, CYPSE ([3]; Rate 0.2500 kg/ha): 3.0 | herbicidal effect rating, MOOVA [5, 18]: 6.0 | herbicidal effect rating, MOOVA [5, 19]: 7.0 | herbicidal effect rating, MOOVA [5, 20]: 9.0 | herbicidal effect rating, MOOVA [5, 21]: 9.0 | herbicidal effect rating ORYSAT ([6]; Rate 0.0320 kg/ha): 4.0 | herbicidal effect rating ORYSAT ([6]; Rate 0.0620 kg/ha): 5.0 | herbicidal effect rating ORYSAT ([6]; Rate 0.1250 kg/ha): 6.0 | herbicidal effect rating ORYSAT ([6]; Rate 0.2500 kg/ha): 7.0 | herbicidal effect rating, SAGPY ([7]; Rate 0.0320 kg/ha): 0.0 | herbicidal effect rating, SAGPY ([7]; Rate 0.0620 kg/ha): 0.0 | herbicidal effect rating, SAGPY ([7]; Rate 0.1250 kg/ha): 0.0 | herbicidal effect rating, SAGPY ([7]; Rate 0.2500 kg/ha): 0.0 | herbicidal effect rating, CYPIR [8, 18]: 0.0 | herbicidal effect rating, CYPIR [8, 19]: 0.0 | herbicidal effect rating, CYPIR [8, 20]: 4.0 | herbicidal effect rating, CYPIR [8, 21]: 4.0 | herbicidal effect rating, ECHORC [10, 18]: 0.0 | herbicidal effect rating, ECHORC [10, 19]: 0.0 | herbicidal effect rating, ECHORC [10, 20]: 2.0 | herbicidal effect rating, ECHORC [10, 21]: 6.0
